No end group written: not given here. *: point of attachment. Cbz = O=C(OCc1ccccc1)*
Tests used:
Assay type in all cases: biochemical, Kutzneria albida
KalbTG [1] = test: GLDH-coupled assay in solution (NADH oxidation); settings: NADH oxidation at 340 nm, 37° C.
Description: KalbTG activity was obtained by measuring incorporation of a biotinylated amine-donor on the peptide array and rates of NADH oxidation at 340 nm and 37° C. in the presence of amine-donor substrate (500 μM) in the GLDH-coupled assay using 100 μM each of nine of the best-performing array-selected glutamine-containing substrates and of two S. mobaraensis MTG glutamine-containing substrates. […] Testing of the top sequences in Table 1 confirmed YRYRQ (SEQ ID NO: 1) and RYRQR (SEQ ID NO 14) as the top performing 5-mer substrates, with turnover rates of 3.52±0.08 pmol NADH s^−1 and 3.60±0.12 pmol NADH s^−1, respectively.
With reference to Table 2, KalbTG activity was obtained by measuring incorporation of a biotinylated glutamine-donor and rates of NADH oxidation at 340 nm and 37° C. in the presence of glutamine-donor substrate (200 μM) in the GLDH-coupled assay using 100 μM each of i) six of the top-performing array-selected lysine substrates, ii) cadaverine, and iii) preferred MTG lysine substrate ARSKL (SEQ ID NO:30). […] This is a small but significant increase over cadaverine (3.51±0.12 pmol s^−1) or ARSKL (SEQ ID NO:30) (3.87±0.31 pmol s^−1), a peptide previously established as a preferred MTG lysine donor motif on the peptide array. Additional details on the S. mobaraensis MTG substrate peptide ARSKL (SEQ ID NO:30) can be found in U.S. Provisional Patent Application Ser. No. 62/094,495 to Albert et al. filed on Dec. 19, 2014.
For the GLDH coupled assay, to determine whether the KalbTG peptides selected in the array assay were also preferred substrates in a solution reaction and to quantify cross-reactivity of KalbTG and S. mobaraensis MTG with various substrates, a continuous glutamate dehydrogenase (GLDH)-coupled assay for S. mobaraensis MTG activity (see Oteng-Pabi, et al., 2013. Analytical biochemistry 441(2): 169-173) was applied.
For glutamine substrate evaluation, the assay was performed in a transparent 96-well microtiter plate in the presence of 500 μM α-ketoglutarate, 500 μM or 1 mM cadaverine as Amine donor substituting for a lysine-containing peptide, 2 U ml^−1 of glutamate dehydrogenase (GLDH), 500 μM NADH and glutamine-containing substrate peptide (Z-[[…] (SEQ ID NO:77)], Z-[[…] (SEQ ID NO:78)], Z-[[…] (SEQ ID NO:75)], Z-[[…] (SEQ ID NO:79)], Z-[[…] (SEQ ID NO:80)], Z-[[…] (SEQ ID NO:81)], Z-[[…] (SEQ ID NO:82)], Z-[[…] (SEQ ID NO:83)], Z-[[…] (SEQ ID NO:84)], Z-[[…] (SEQ ID NO:85)], Z-[[…] (SEQ ID NO:86)], Z-[[…] (SEQ ID NO:76)] or Z-[[…] (SEQ ID NO:87)]) concentrations ranging between 0 and 1 mM in 200 mM MOPS, 1 mM EDTA pH 7.2 (total volume per well 200 μl).
For amine substrate evaluation, assay conditions were the same as for glutamine substrate evaluation with the exception that 100 μM each of amine substrate (Z-[[…] (SEQ ID NO:88)], Z-[[…] (SEQ ID NO:89)], Z-[[…] (SEQ ID NO:90)], Z-[[…] (SEQ ID NO:91)], Z-[[…] (SEQ ID NO:92)], Z-[[…] (SEQ ID NO:93)], Z-[[…] (SEQ ID NO:94)], Z-[[…] (SEQ ID NO:95)] or cadaverine) and 200 μM glutamine donor (Z-[[…] (SEQ ID NO:75)] or Z-[[…] (SEQ ID NO:76)]) were used.
Reactions were started by the addition of 5 μg ml^−1 of S. mobaraensis MTG or KalbTG and the oxidation of NADH was continuously recorded at 340 nm for 60 minutes using a Biotek Synergy H4 microplate reader, temperature controlled at 37° C., with short shaking intervals before each measurement. After a short lag phase where the GLDH was saturated by transglutaminase-mediated release of ammonia, linear rates of absorbance versus time corresponding to transglutaminase turnover were observed and subjected to Michaelis-Menten kinetic analysis. […]

KalbTG [2] = test: 5-mer peptide array, glutamine-substrate screening with biotinylated amine donor; settings: incorporation of biotinylated amine-donor on 5-mer peptide array
Description: To identify potential acyl-donor and amine-donor substrates of the K. albida transglutaminase, high-throughput screening on 5-mer peptide arrays was performed (FIGS. 4A and 4B). An activity of at least 1.65 U/mg for both the SlyD-fused and the mature KalbTG enzymes was confirmed by commercial assay (Zedira MTG-ANiTA-KIT; compared to 4.3 U mg^−1 by the MTG supplied with the kit and a 0.07 U/mg blank value with BSA). The assay used β-casein as a cross-linking substrate and detected deamidation by a glutamate dehydrogenase dependent oxidation of NADPH. Specific recognition motifs were identified by assaying KalbTG with peptide arrays prepared by maskless array synthesis (U.S. Pat. Pub. No 2015/0185216 to Albert et al. filed on 19 Dec. 2014). The efficiency of the transamidation reaction between 1.4 million unique 5-mer peptides and a biotinylated amine donor was quantified on two arrays in parallel and the sequences of the peptides with the highest turnovers were determined (FIG. 4A). The nine best peptides were resynthesized and tested for KalbTG activity in a standalone GLDH-coupled assay. Note that the array signal for the sequence MLAQG (SEQ ID NO:13) is marked not applicable (n. a.) as this sequence was not included on the array. Similarly, measurement of a background signal was only applicable to experiments performed on the array.
(§1) For construction of the peptide array, a library of 1,360,732 unique 5-mer peptides was designed by using all combinations of 18 natural amino acids excluding cysteine and methionine, as well as any dimer or a longer repeat of the same amino acid, and any peptide containing a dipeptide selected from HR, RH, HK, KH, RK, KR, HP, and PQ sequences. The library was synthesized in duplicate on the same array by using maskless light-directed peptide array synthesis. Each 5-mer peptide was flanked on both the N-terminus and C-terminus by 3 amino acid-long linkers synthesized by using mixture of glycine and serine having a 3:1 ratio.
To test KalbTG specificity for glutamine-containing substrate, N-(biotinyl)cadaverine was used as a substitute for a lysine substrate to biotinylate glutamine-peptides on a peptide array. KalbTG labeling reaction was performed in 1200 μL 100 mM Tris-HCl pH 8, 1 mM DTT, 50 μM N-(biotinyl)cadaverine, 0.2 ng μl^−1 KalbTG in SecureSeal™ chamber (Grace Bio-Labs) at 37° C. for 45 minutes. After incubation the chamber was removed and the array was washed in 20 mM Tris-HCl, pH7.8, 0.2 M NaCl, 1% SDS for 1 minute followed by a 1 minute wash in 20 mM Tris-HCl. Biotin linked to the array was stained with 0.3 μg ml^−1 Cy5-streptavidin in 10 mM Tris-HCl, pH7.4, 1% alkali-soluble casein, 0.05% TWEEN-20 non-ionic detergent at room temperature for 1 hour. Cy5 fluorescence intensity was measured with a fluorescence scanner at a resolution of 2 μm and a wavelength of 635 nm.
Target sequence in this assay (as listed by the source): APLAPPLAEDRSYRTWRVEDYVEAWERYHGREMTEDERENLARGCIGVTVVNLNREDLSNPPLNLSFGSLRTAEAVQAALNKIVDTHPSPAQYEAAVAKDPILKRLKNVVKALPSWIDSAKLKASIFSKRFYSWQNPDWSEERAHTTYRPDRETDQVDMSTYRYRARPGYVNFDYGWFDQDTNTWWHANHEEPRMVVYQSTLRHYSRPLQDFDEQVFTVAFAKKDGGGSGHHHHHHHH

KalbTG [3] = test: 5-mer peptide array, lysine-substrate screening with biotinylated glutamine donor; settings: incorporation of biotinylated glutamine-donor on 5-mer peptide array
Excerpt: A second round of maturation on the peptide array yielded […] (SEQ ID NO:24) as the top performing 9-mer substrate, which was then resynthesized as biotinylated peptide to act as acyl donor for the discovery of optimized lysine recognition motifs back on the 5-mer peptide array (FIG. 4B). Again, six of the best lysine-containing peptides were resynthesized and tested in the KalbTG in-solution activity assay using a peptide containing the optimized glutamine recognition sequence YRYRQ (SEQ ID NO:1) as an acyl donor (Table 2). It will be appreciated that calculation of an array signal for cadaverine was not applicable due to omission of cadaverine from the array.
as §1
Target sequence in this assay (as listed by the source): as above
In order to test KalbTG specificity for lysine substrates, chemically synthesized Z-[[…] (SEQ ID NO:31)]-PEG-Biotin peptide—which includes the sequence […] (SEQ ID NO:31)—was used as a glutamine-containing substrate to biotinylate lysine-containing peptides. Array biotinylation was done as described above with 0.1 ng μl^−1 KalbTG, 0.8 μM peptide at 37° C. for 15 minutes. Note that the a “Z—” in front of a peptide or other like construct is used herein to represent a carboxybenzyl group unless stated otherwise.

[4] = 100 μM glutamine-containing substrate, 500 μM amine-donor substrate
[5] = 100 μM amine substrate, 200 μM glutamine-donor substrate

Compound | Reaction rate in solution (KalbTG [1]; [4]) [pmol/s] | Array signal (log2) (KalbTG [2]) | Reaction rate in solution (KalbTG [1]; [5]) [pmol/s] | Array signal (log2) (KalbTG [3]) | Reaction rate in solution (KalbTG [1]; 100 μM amine substrate, 200 μM glutamine-donor substrate, listed as cadaverine) [pmol/s]
QYRQR (Cbz-QYRQR) [KalbTG glutamine-donor 5-mer] | 1.92 ± 0.07 | 8.70 | – | – | –
RYSQR (Cbz-RYSQR) [KalbTG glutamine-donor 5-mer] | 3.22 ± 0.10 | 8.93 | – | – | –
FRQRG (Cbz-FRQRG) [KalbTG glutamine-donor 5-mer] | 2.11 ± 0.13 | 8.82 | – | – | –
RQRQR (Cbz-RQRQR) [KalbTG glutamine-donor 5-mer] | 2.06 ± 0.08 | 8.84 | – | – | –
RYSKY (Cbz-RYSKY) [KalbTG lysine (amine-donor) 5-mer] | – | – | 3.89 ± 0.04 | 12.75 | –
YKGRG (Cbz-YKGRG) [KalbTG lysine 5-mer] | – | – | 3.01 ± 0.09 | 12.25 | –
NCCCCCN [Cadaverine, reference compound] | – | – | 3.51 ± 0.12 | – | 3.51 ± 0.12
RYGKS (Cbz-RYGKS) [KalbTG lysine 5-mer] | – | – | 2.66 ± 0.11 | 12.38 | –
RYRSK (Cbz-RYRSK) [KalbTG lysine 5-mer] | – | – | 3.26 ± 0.10 | 12.45 | –
RYESK (Cbz-RYESK) [KalbTG lysine (K-tag) 5-mer] | – | – | 4.47 ± 0.16 | 12.65 | –
AYRTK (Cbz-AYRTK) [KalbTG lysine 5-mer] | – | – | 3.65 ± 0.17 | 12.57 | –
QRQRQ (Cbz-QRQRQ) [KalbTG glutamine-donor 5-mer] | 2.98 ± 0.01 | 8.77 | – | – | –
ARSKL (Cbz-ARSKL) [preferred MTG lysine substrate, reference compound] | – | – | 3.87 ± 0.31 | 12.0 | –
YKYRQ (Cbz-YKYRQ) [KalbTG glutamine-donor 5-mer, lysine-containing] | 4.00 ± 0.18 | 8.70 | – | – | –
RYRQR (Cbz-RYRQR) [KalbTG glutamine-donor 5-mer] | 3.60 ± 0.12 | 8.96 | – | – | –
FRQRQ (Cbz-FRQRQ) [KalbTG glutamine-donor 5-mer] | 3.07 ± 0.17 | 8.93 | – | – | –

From patent publication US11054425B2, “System and method for identification and characterization of transglutaminase species” (Roche Sequencing Solutions, Inc., priority 2014, dated 2021)
